The source of these data is publication PMC8617258, “Plant LHC-like proteins show robust folding and static non-photochemical quenching” (Nature Communications, 2021).

The target in data set [1] is T1, LIL3 (LIL3.1) (Arabidopsis thaliana, UniProt Q9SYX1, N177A).
T1 construct: PCC 6803 GT-P, DDM-solubilized, dimer
T1 sequence (Q9SYX1 40-262 N177A): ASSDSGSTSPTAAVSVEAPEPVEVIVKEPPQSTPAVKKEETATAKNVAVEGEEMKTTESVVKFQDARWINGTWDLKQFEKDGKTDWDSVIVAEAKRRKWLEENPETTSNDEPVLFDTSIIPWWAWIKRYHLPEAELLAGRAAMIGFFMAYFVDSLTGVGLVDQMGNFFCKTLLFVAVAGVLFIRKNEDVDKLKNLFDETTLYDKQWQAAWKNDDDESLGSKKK
Briefly: co-purification; pigment colour of the purified protein. The note with it: DDM-solubilized. It is filed as binding.

Data set [2] concerns the target T2, LIL3 (LIL3.1) (Arabidopsis thaliana, UniProt Q9SYX1).
T2 construct: PCC 6803 GT-P, DDM-solubilized, dimer
T2 sequence (Q9SYX1 40-262): T1 sequence (Q9SYX1 40-262 N177A) with A138N
Put plainly: co-purification (Ni-NTA, sucrose gradient), CN-PAGE, SEC, HPLC pigment analysis. It is filed as binding. The note with it: dimer; pH 6.5, 0.03% DDM, 15 °C.

The target in data set [3] is T3, LIL3 (LIL3.1) (Arabidopsis thaliana, UniProt Q9SYX1, N177D).
T3 construct: PCC 6803 GT-P, DDM-solubilized, dimer
T3 sequence (Q9SYX1 40-262 N177D): T1 sequence (Q9SYX1 40-262 N177A) with A138D
Put plainly: co-purification, 2D CN/SDS-PAGE. It is filed as binding. The note with it: DDM-solubilized.

The target in the next data set is T4, ELIP2 (Arabidopsis thaliana, UniProt Q94K66).
T4 construct: PCC 6803 GT-P, DDM-solubilized, monomeric
T4 sequence (Q94K66 44-193): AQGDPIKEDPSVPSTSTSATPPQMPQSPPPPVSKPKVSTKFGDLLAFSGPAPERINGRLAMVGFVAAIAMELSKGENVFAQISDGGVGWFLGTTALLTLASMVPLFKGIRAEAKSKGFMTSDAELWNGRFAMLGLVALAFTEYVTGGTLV
Put plainly: co-purification (Ni-NTA, sucrose gradient), SEC, HPLC pigment analysis. The note with it: pH 6.5, 0.03% DDM, 15 °C. The format is binding.

Data set [4] deals with the molecule itself. Put plainly: native gel or EMSA; 2D clear native/SDS-PAGE (4-14% CN gel, DDM) of LIL3 purified from the wild type background, pigmented; Coomassie stain; mass judged against Synechocystis membrane complexes with a detergent belt assumed. For orientation: Mobility shift assays separate free from complexed probe on a gel.

Changes are numbered by the printed parent chain.

With `CC1=C(/C=C/C(C)=C/C=C/C(C)=C/C=C/C=C(C)/C=C/C=C(C)/C=C/C2=C(C)C[C@@H](O)CC2(C)C)C(C)(C)C[C@H](O)C1` [Zea, zeaxanthin], the no binding result on LIL3 (LIL3.1) [1] is “(LIL3-N177A and LIL3-N177D) were purified from Synechocystis as completely colourless proteins”; on LIL3 (LIL3.1) [3], “showing that the N177D mutation abolishes pigment binding”. In addition, at LIL3 (LIL3.1) [2], the “co-purification (Ni-NTA, sucrose gradient), CN-PAGE, SEC, HPLC pigment analysis” value is “Pigments extracted from the LIL3 SEC fraction contained Zea and Chl”. For the same molecule, the “co-purification (Ni-NTA, sucrose gradient), SEC, HPLC pigment analysis” value on ELIP2 is “Pigments co-isolated with ELIP2 consisted of Zea, Chl, and β-Car”.
`CC1=C(/C=C/C(C)=C/C=C/C(C)=C/C=C/C=C(C)/C=C/C=C(C)/C=C/C2=C(C)CCCC2(C)C)C(C)(C)CCC1` [β-Car]: the “co-purification (Ni-NTA, sucrose gradient), SEC, HPLC pigment analysis” value at ELIP2 is “Pigments co-isolated with ELIP2 consisted of Zea, Chl, and β-Car”.

B1: LIGHT-HARVESTING-LIKE 3 protein LIL3.1 from Arabidopsis, 8xHis-tagged, without the predicted signal sequence (natural protein, UniProt Q9SYX1 40-262, looked up)
chain: T1 sequence (Q9SYX1 40-262 N177A) with A138N
notes: printed mass 25.1 KDa; Cloned into the pPD-NFLAG plasmid by NdeI and BglII with 8xHis added by the forward primer; From the wild type background it carries Chl and zeaxanthin; from ZEP^+ and xant^- it is (almost) colourless; also called LIL3[2]; LIL3 (ZEP^+); source: Synechocystis sp; PCC 6803 (psbAII promoter; wild type, ZEP^+ or xant^- background), purified from DDM-solubilized membranes …
For B1, the stoichiometry N – broadly, the number of molecules, sites or subunits per partner or assembly – in data set [4] came to 2.
